Assay results as given in US20140142140A1, “PHARMACEUTICAL COMPOSITION FOR NEUROLOGICAL DISORDERS” (priority 2011, published 2014).
Read-outs that look alike come from different tables or passages of the source.

Columns and labels:
[1] = test system: patients with Alzheimer's type dementia; experiment: Case reports, Mild Cognitive Impairment (MCI) and Dementia (Example 1); assay type: in vivo, human
Excerpt: Patient 1A was an elderly person with history of impairment of cognitive function. Presumptive diagnosis of possible dementia of Alzheimers type.
Patient 1B was an elderly retired person with a 7 year history of Alzheimer's type dementia treated with the cholinesterase inhibitor Donepezil. […] Their cognitive function has gradually deteriorated since this time. […] Their reading was more fluent being better able to follow the meaning of the text. There was also improvement in their Stroop Test particularly in part three, the more cognitively demanding where their accuracy improved from 50 to 90%.

[2] = test system: individuals with symptoms of ADHD
[3] = test system: patients with schizophrenia; experiment: Case reports, Schizophrenia (Example 7); assay type: in vivo, human
Excerpt: Patient 7A: Adult, initially diagnosed with schizophrenia in adolescence. Long history of impairment with predominant paranoid delusions controlled with antipsychotic medication although still experiencing significant relapses despite consistent adherence to the pharmacotherapy regime. Significant social impairment, unable to sustain employment and requires support. Prominent negative symptoms and social deficits, unable to sustain eye contact when speaking. Speech slow, effortful and fatiguing. […] Prosody and rate of speech both improved. Patient 7B: Adult initially diagnosed with schizophrenia during adolescence, following many years of prominent positive symptoms with severe behavioural disturbances and violence requiring periods of hospitalisation. Patient has never been able to sustain employment and requires significant social support to maintain functioning. Prominent thought disorder and general social disengagement. […] Able to sustain and enjoy social interaction in a sheltered workshop which had never occurred previously.

[4] = test system: patient with chronic neck pain; experiment: Case report, Chronic Pain (Example 12); assay type: in vivo, human
Method: A further sublingual dose of phenyloin 1 mg was taken 15 mins after the first dose.

[5] = test system: patient with spina bifida, ADHD, learning difficulties; experiment: Case report, Spina Bifida (Example 11); assay type: in vivo, human
patients with PTSD = experiment: Case reports, PTSD (Example 9); assay type: in vivo, human
Excerpt: Patient 9A: Two year history of PTSD & Major Depression, unable to work for nine months. […] Eight months specialist psychiatric treatment including specific PTSD therapy program. […] No history of premorbid ASD or ADHD, possible mild reading difficulties.
Patient 9B: 40 year history of severe PTSD associated with severe re-experiencing phenomena, absence of any family relationships and social withdrawal, anger outbursts, chronic sleep disturbance exaggerated startle reflex and hypervigilance. Comorbid conditions including chronic major depression, alcohol dependence. Attended regular psychiatric treatment for in excess of five years. Treated with a combination of regular outpatient psychotherapy and pharmacotherapy including antidepressants and antipsychotic medications.
Patient 9C: history of PTSD associated with chronic impairment in previous alcohol dependence. Previous psychiatric admissions as a consequence of condition. Long-term antidepressant therapy together with intermittent use of antipsychotic medication.

[6] = test system: patient with tardive dyskinsia; experiment: Case report, Tardive Dyskinesia (Example 10); assay type: in vivo, human; conditions: Patient 10A; test dose of 1 mg
Excerpt: Patient 10A was an elderly person with a history of post-dramatic stress disorder treated with long-term antipsychotic medication.

[7] = test system: patients with closed head injury; experiment: Case reports, Acquired Brain Injury (Example 4); assay type: in vivo, human
[8] = cited from earlier work
[9] = test system: patients with visual fatigue / impaired visual acuity; experiment: Case reports, Visual fatigue / visual acuity (Example 5); assay type: in vivo, human; conditions: for three-dimensional delicate work (visual acuity and depth perception): Patient 5d
Excerpt: Adult with a history of ADHD stabilised on a combination of a psychostimulant and sodium valproate.
Adult diagnosed with ADHD and stable on treatment with psychostimulants. […] Previously always relied on glasses to read because of an astigmatism.
Adult previously diagnosed with ADHD and no longer taking stimulant medication.

[10] = test system: patients with bipolar mood disorder; experiment: Case report, Bipolar (Example 8); assay type: in vivo, human
[11] = Patient 4A, test dose less than 3 mg via buccal mucosa
[12] = Patient 4B, test sublingual dose 1 mg

O=C1NC(=O)C(c2ccccc2)(c2ccccc2)N1 [phenyloin, 5,5-diphenylhydantoin]
cognitive function, clinical response ([1]; Patient 1A, possible dementia of Alzheimers type, 25 mg): some improvement but benefit was lost on continuation of this dose | duration of sustained benefit ([1]; Patient 1A, 3 mg daily): over 24 months | cognitive function, clinical response ([1]; Patient 1A, daily dose of 3 mg in divided doses orally): significant improvement | cognitive function after withdrawal of medication ([1]; Patient 1A, withdrawal after 25 mg): transient improvement followed by a return to pre-phenyloin functioning | ability to read a standard text ([1]; Patient 1B (treated with Donepezil), test dose 1 mg sublingual): significant improvement in their ability to read a standard text | time to improvement in reading after dose ([1]; Patient 1B, 1 mg sublingual): ≤ 10 min | functioning the following day after single dose ([1]; Patient 1B, 1 mg sublingual single dose): more able to initiate activities | Stroop Test part three accuracy after dose ([1]; Patient 1B, 1 mg sublingual, improved from 50): 90% | duration of improvement on ceasing before deterioration ([2]; Patient 3A): up to 7 days | most efficacious dose ([2]; Patient 3A): 0.1 mg daily | ADHD symptoms, clinical response ([2]; Patient 3A (on tricyclic antidepressant and dexamphetamine), 30 mg capsule): temporarily associated with improvement in clarity of thoughts and eye contact during conversation | clinical response on reintroduction at a lower dose ([2]; Patient 3A, lower dose): initial benefit that associated with rapid loss of efficacy | functioning after withdrawal ([2]; Patient 3A, phenyloin withdrawn): initial improvement then later worsening to the pre-phenyloin functioning | side effects of higher doses ([2]; in vivo): significant cognitive side effects | efficacy of higher doses ([2]; individuals with symptoms of ADHD, higher doses): ineffective | symptoms of ADHD, clinical response ([2]; individuals with symptoms of ADHD, ultra low doses): improvements were noted | communication, prosody and rate of speech ([3]; Patient 7A (on antipsychotic medication), 2 mg daily): significant improvement in ability to communicate with less effort | speech and reading aloud a standard text ([3]; Patient 7B, 1 mg sublingual): significant improvement in speech and ability to read aloud a standard text | effects when withdrawn ([3]; Patient 7B, phenyloin withdrawn): Positive effects abated | freedom of movement without pain ([4]; additional sublingual dose 1 mg on top of 3 mg modified release): further acute improvement in the freedom of movement without pain | control of chronic pain on maintenance ([4]; daily dose 3 mg modified release capsule): control of the chronic pain was maintained | duration of relief ([4]; sublingual 1 mg): approximately 10 min | vision during relief ([4]; sublingual 1 mg): enhancement in their vision | intensity of the pain after dose ([4]; sublingual 1 mg, from 10/10 (most severe) before dose): 5/10 | invasive and distressing nature of cervical pain ([4]; ultra low dose): reduced with unexpected efficacy and rapidity | duration of sustained improvements ([5]; Patient 11A): over 12 months | social interaction, conversation, reading aloud, fine motor control and handwriting ([5]; Patient 11A (on low dose methylphenidate), sublingual dose 1 mg): significant improvement | dose associated with optimal response ([5]; Patient 11A, daily in two divided doses): 1.5 mg | efficacy after dose increase ([5]; Patient 11A, dose increased to 2 mg): loss of efficacy | duration improvements maintained (patients with PTSD; Patient 9A): over three months | time to reported improvements (patients with PTSD; Patient 9A, 2 mg daily): ≤ 24 h | efficacy after dose change (patients with PTSD; Patient 9A, dose reduced to 1 mg and increased to 4 mg): reduction in efficacy | overall improvement described (patients with PTSD; Patient 9B, low dose): 50% | most stable and efficacious dose (patients with PTSD; Patient 9C): 0.5 mg daily | stable improvements (patients with PTSD; Patient 9C, 0.5 mg daily): reduction of intrusive and negative thoughts • Enhanced interpersonal communication • Reduced effort of reading • Enhanced quality of sleep | adverse effects (patients with PTSD; Patient 9C, 3 mg): became irritable and experienced word finding difficulties | intrusive thoughts, mood stability and concentration (patients with PTSD; Patient 9C, 3 mg): initial improved ability to dismiss and ignore distressing, intrusive thoughts | functioning during complete withdrawal (patients with PTSD; Patient 9C, periods of complete withdrawal): return to their pre-phenyloin functioning including a worsening of their symptoms of PTSD | functional capacity and symptoms of PTSD (patients with PTSD; patients with PTSD, Ultra low dose): significant improvements in functional capacity as well as a reduction in the symptoms of PTSD | abnormal facial movements [6]: abnormal facial movements ceased | clinical response to increased dose, following day ([7]; Patient 4A, dose increased, second day): no dramatic improvement | functioning over five days after cessation ([7]; Patient 4A, phenyloin ceased, followed by deterioration to pre-phenyloin functioning): gradual improvement in their functioning | developmental Eye Movement Test and Stroop test ([7]; Patient 4A, repeated sublingual dose): consistent with the improved cognitive functioning | clinical response to repeated dose, third day ([7]; Patient 4A, same increased dose, third day): noticeable deterioration in their ability to focus and organize their thinking | ability to focus [7, 11]: dramatic and unexpected improvement in their ability to focus | motor tics and vocalisations [7, 11]: repetitive chanting and hand movements ceased | reading ([7]; Patient 4B, 3 mg): began reading for the first time in 10 years | ability to organise and undertake tasks ([7]; Patient 4B, initial dose of 3 mg): unexpected and dramatic improvement in the ability to organise and undertake tasks | effort required for communication [7, 12]: reduction in the effort required for communication | subjective vision [7, 12]: enhanced clarity of vision | irritability and sense of being overwhelmed after a further dose ([7]; Patients 4A and 4B, further dose): temporary relief | duration of sustained improvements ([7]; both cases (Patients 4A and 4B)): over 12 months | half-life ([8]; high doses): prolonged | metabolism ([8]; in vivo): almost completely metabolized in the liver | time for plasma concentration to reach steady-state level ([8]; in vivo): 1-2 weeks | half-life ([8]; low doses): less than 20 h | overall functioning ([9]; Patient 5a, ADHD on psychostimulant and sodium valproate, 4 mg added): further improvement in their overall functioning | visual fatigue ([9]; Patient 5a, 4 mg added): visual fatigue no longer occurred | function ([9]; Patient 5b, ADHD on psychostimulants, 2 mg daily): significant improvement in function | visual acuity ([9]; Patient 5b, 2 mg daily): apparent improvement in their visual acuity | visual acuity whilst reading ([9]; Patient 5c, 1 mg): immediate and unexpected improvement in visual acuity | judging distances when playing lawn bowls ([9]; Patient 5e, low dose): improvement in their ability to accurately identify distances | visual judgement when playing soccer ([9]; Patient 5f, low dose): improvement in visual judgement | three-dimensional delicate work (visual acuity and depth perception) ([9]; 1 mg): most consistent improvement | three-dimensional delicate work (visual acuity and depth perception) ([9]; 2 mg): improved | function ([10]; Patient 8A, bipolar mood disorder, compounded 2 mg capsule): significant improvement in function | improvements noted ([10]; Patient 8A, 2 mg capsule): enhanced organisation and planning • reduced effort required for social interaction • enhanced clarity of thought • a sense of being psychologically more normal | clinical effect of a much higher dose ([10]; patients with bipolar spectrum disorders, much higher dose): good effect | executive functioning ([10]; some patients with bipolar mood disorder, very low dose added): significant improvement in their executive functioning
